According to ChEMBL document CHEMBL5214972, “Design and evaluation of novel analogs of 2-amino-4-boronobutanoic acid (ABBA) as inhibitors of human gamma-glutamyl transpeptidase” (Bioorg Med Chem, 2022):

Columns and labels:
[1] = target: T1, Glutathione hydrolase 1 proenzyme (Homo sapiens, UniProt P19440); assay: Inhibition of human GGT1 transpeptidation in Pichia pastoris using L-GpNA as substrate in presence of Gly-Gly
[2] = target: T1, Glutathione hydrolase 1 proenzyme; assay: Inhibition of human GGT1 expressed in Pichia pastoris assessed as inhibition of GSH hydrolysis measured by L-glutamate release assay
[3] = Inhibition of bovine GGT1 transpeptidation using gamma-glutamyl-p-nitroanilide in presence of Gly-Gly; parameters: species or system Bos taurus

T1 sequence (P19440 1-380 limits assumed): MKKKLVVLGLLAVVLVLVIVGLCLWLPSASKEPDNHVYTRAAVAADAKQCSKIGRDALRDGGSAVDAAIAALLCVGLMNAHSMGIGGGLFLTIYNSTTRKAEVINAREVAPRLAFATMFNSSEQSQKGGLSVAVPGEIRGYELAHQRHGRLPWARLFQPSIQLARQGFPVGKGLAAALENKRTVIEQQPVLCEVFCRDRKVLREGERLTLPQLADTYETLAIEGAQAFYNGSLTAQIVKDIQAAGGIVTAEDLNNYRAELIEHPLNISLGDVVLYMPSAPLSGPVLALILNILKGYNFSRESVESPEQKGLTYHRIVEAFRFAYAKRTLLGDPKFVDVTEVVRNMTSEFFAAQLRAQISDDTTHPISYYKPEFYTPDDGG
T1 sequence (P19440 381-569 limits assumed): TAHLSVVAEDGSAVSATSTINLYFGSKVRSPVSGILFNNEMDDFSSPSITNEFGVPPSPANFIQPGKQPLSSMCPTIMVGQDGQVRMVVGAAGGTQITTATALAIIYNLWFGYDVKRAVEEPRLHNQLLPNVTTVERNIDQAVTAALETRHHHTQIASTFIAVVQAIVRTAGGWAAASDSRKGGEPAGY

Row | SMILES | Ki [1] | Ki [2] | Ki [3]
1 | O=C(O)[C@@H](CCB(O)O)NCc1ccc(S(=O)(=O)Nc2ccccc2)cc1 | 173 µM |  | 
2 | O=C(O)c1cccc(CN[C@H](CCB(O)O)C(=O)O)c1 | 589 µM |  | 
3 | N[C@H](CN[C@H](CCB(O)O)C(=O)O)Cc1ccccc1 | 61 µM |  | 
4 | N[C@@H](CN[C@H](CCB(O)O)C(=O)O)Cc1ccccc1 | 88 µM | 508 µM | 
5 | N[C@H](CCB(O)O)C(=O)O | 0.045 µM | 0.077 µM | 
6 | C[C@@H](N)CN[C@H](CCB(O)O)C(=O)O | 254 µM | > 1000 µM | 
7 | O=C(O)[C@@H](CCB(O)O)NCc1c[nH]cn1 | 26 µM | 87 µM | 
8 | O=C(O)[C@@H](CCB(O)O)NCCCc1ccccc1 | 49 µM | 108 µM | 
9 | O=C(O)[C@@H](CCB(O)O)NCc1ccccc1 | 202 µM | 2150 µM | 
10 | COc1ccc(CN[C@H](CCB(O)O)C(=O)O)cc1 | 343 µM |  | 
11 | NCCN[C@H](CCB(O)O)C(=O)O | 46 µM | 260 µM | 
12 | O=C(O)[C@@H](CCB(O)O)NCCc1ccccc1 | 220 µM | 356 µM | 
13 | N[C@@H](CCB(O)O)C(=O)O | 0.0054 µM | 0.025 µM | 0.017 µM
